Test results: US12139520B2 (priority 2020, dated 2024)
Numbered stars: 1 amine (or outer) side, 2 acyl side, 3 side chain; on linkers, the order of the positions; unused ones are H or OH. Bridge positions count the residues as written; N and C are the ends. Square brackets hold non-standard residues; d marks the D form. Peptide text beside a SMILES is read from it. * marks the point of attachment. C20 diacid = O=C(O)CCCCCCCCCCCCCCCCCCC(=O)*; γGlu = O=C(O)[C@H](CCC(=O)[*:2])N[*:1]; Hyp = O=C(O)[C@@H]1C[C@@H](O)CN1; Cit = NC(=O)NCCC[C@H](N)C(=O)O

What was measured:
hAM1 receptor = hAM1 receptor (Homo sapiens, UniProt O60895+Q16602); assay: cAMP assay for in vitro receptor activation, hAM1-R; type: cell-based; conditions: cAMP assay, hAM1 receptor; read-out: hAM1R EC50
Outline: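 Stable hAM1 cells (monoclonal) plated 8000/well; buffer DPBS, 0.05% casein, 0.5 mM IBMX; cAMP read-out.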

hAMY3 receptor = target: T1, hAMY3 receptor (Homo sapiens, UniProt O60896+P30988); assay: cAMP assay for in vitro receptor activation, hAMY3-R; type: cell-based; conditions: cAMP assay, hAMY3 receptor; read-out: hAMY3R EC50
T1 sequence (P30988 25-474): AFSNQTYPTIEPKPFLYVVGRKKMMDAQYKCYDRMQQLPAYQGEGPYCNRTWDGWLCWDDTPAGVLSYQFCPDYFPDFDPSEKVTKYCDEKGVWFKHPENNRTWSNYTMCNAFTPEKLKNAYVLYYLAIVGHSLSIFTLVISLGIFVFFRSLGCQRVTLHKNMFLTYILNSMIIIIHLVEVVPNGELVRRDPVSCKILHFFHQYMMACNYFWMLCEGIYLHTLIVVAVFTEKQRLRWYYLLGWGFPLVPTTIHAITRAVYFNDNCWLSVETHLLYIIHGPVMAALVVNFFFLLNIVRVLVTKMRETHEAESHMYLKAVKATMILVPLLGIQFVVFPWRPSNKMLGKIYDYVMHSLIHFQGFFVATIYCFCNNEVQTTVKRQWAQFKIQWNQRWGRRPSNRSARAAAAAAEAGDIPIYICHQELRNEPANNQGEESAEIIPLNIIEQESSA
T1 sequence (O60896 24-148 partner): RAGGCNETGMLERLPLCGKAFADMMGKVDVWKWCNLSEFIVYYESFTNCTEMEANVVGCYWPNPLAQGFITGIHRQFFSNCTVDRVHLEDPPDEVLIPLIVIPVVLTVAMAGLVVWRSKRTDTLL
Outline: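 Accumulated cAMP was detected by time-resolved FRET one hour after reagent addition. Beforehand, hAMY3-R-overexpressing monoclonal cells (2000/well, DPBS, 0.05% casein, 0.5 mM IBMX) received graded doses of compound for 30 min at room temperature; human amylin served as positive control.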

Sequence of hAM1 receptor (Q16602 23-461): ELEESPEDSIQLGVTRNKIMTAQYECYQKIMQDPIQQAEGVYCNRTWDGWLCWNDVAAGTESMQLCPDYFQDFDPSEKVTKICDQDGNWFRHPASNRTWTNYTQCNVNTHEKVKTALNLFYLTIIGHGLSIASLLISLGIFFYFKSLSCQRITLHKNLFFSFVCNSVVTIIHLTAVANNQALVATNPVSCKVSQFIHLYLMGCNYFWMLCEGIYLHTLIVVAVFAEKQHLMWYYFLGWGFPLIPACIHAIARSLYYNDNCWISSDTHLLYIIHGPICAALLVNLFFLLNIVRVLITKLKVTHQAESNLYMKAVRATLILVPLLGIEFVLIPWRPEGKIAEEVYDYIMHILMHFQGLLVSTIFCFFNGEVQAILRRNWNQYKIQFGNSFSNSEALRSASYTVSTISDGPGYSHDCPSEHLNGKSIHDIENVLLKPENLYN
Sequence of hAM1 receptor (O60895 43-175 partner): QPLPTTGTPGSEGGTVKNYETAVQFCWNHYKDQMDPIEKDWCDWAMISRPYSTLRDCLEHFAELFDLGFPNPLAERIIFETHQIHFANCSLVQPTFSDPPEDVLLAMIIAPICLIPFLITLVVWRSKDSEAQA

Compound | EC50 (hAM1 receptor) [nM] | EC50 (hAMY3 receptor) [nM]
CC[C@H](C)[C@H](NC(=O)[C@H](CCC(N)=O)NC(=O)[C@H](Cc1c[nH]cn1)NC(=O)[C@H](C)NC(=O)[C@H](CC(C)C)NC(=O)[C@H](CCCNC(=N)N)NC(=O)[C@H](CCC(N)=O)NC(=O)[C@@H](NC(=O)[C@@H](NC(=O)[C@@H]1CSSC[C@H](NC(=O)[C@H](CCCCN)NC(=O)CC[C@H](NC(=O)CCCCCCCCCCCCCCCCCCC(=O)O)C(=O)O)C(=O)N[C@@H](CC(N)=O)C(=O)N[C@@H]([C@@H](C)O)C(=O)N[C@@H](C)C(=O)N[C@@H]([C@@H](C)O)C(=O)N1)[C@@H](C)O)C(C)C)C(=O)N[C@H](C(=O)N[C@@H](CCC(N)=O)C(=O)N[C@@H](Cc1ccccc1)C(=O)N[C@H](C(=O)N[C@@H](CC(=O)O)C(=O)N[C@@H](CCCCN)C(=O)N[C@@H](CC(=O)O)C(=O)N[C@@H](CCCCN)C(=O)N[C@@H](CC(=O)O)C(=O)N[C@@H](CC(N)=O)C(=O)N[C@H](C(=O)N[C@@H](C)C(=O)N1CCC[C@H]1C(=O)N1CCC[C@H]1C(=O)N[C@H](C(=O)N[C@@H](CC(N)=O)C(=O)N[C@H](C(=O)NCC(=O)N[C@@H](CO)C(=O)N[C@@H](CC(N)=O)C(=O)NCC(=O)N1C[C@H](O)C[C@H]1C(N)=O)C(C)C)[C@@H](C)O)C(C)C)[C@@H](C)O)[C@@H](C)O [compound 22] ({C20 diacid-γGlu}-KCNTATCTVQRLAHQITQFTDKDKDNVAPPTNVGSNG[Hyp]-NH2; disulfide 2-7) | > 5000 | 0.008
CC[C@H](C)[C@H](NC(=O)[C@H](CCC(N)=O)NC(=O)[C@H](Cc1c[nH]cn1)NC(=O)[C@H](C)NC(=O)[C@H](CC(C)C)NC(=O)[C@H](CCCNC(=N)N)NC(=O)[C@H](CCC(N)=O)NC(=O)[C@@H](NC(=O)[C@@H](NC(=O)[C@@H]1CSSC[C@H](NC(=O)[C@@H](N)CCCCN)C(=O)N[C@@H](CC(N)=O)C(=O)N[C@@H]([C@@H](C)O)C(=O)N[C@@H](C)C(=O)N[C@@H]([C@@H](C)O)C(=O)N1)[C@@H](C)O)C(C)C)C(=O)N[C@@H](Cc1ccc(O)cc1)C(=O)N[C@@H](CCC(N)=O)C(=O)N[C@@H](Cc1ccccc1)C(=O)N[C@H](C(=O)N[C@@H](CC(=O)O)C(=O)N[C@@H](CCCCN)C(=O)N[C@@H](CC(=O)O)C(=O)N[C@@H](CCCCN)C(=O)N[C@@H](CC(=O)O)C(=O)N[C@@H](CC(N)=O)C(=O)N[C@H](C(=O)N1CCC[C@H]1C(=O)N1CCC[C@H]1C(=O)N[C@H](C(=O)N[C@@H](CC(N)=O)C(=O)N[C@H](C(=O)NCC(=O)N[C@@H](CO)C(=O)N[C@@H](CC(N)=O)C(=O)NCC(=O)N1C[C@H](O)C[C@H]1C(N)=O)C(C)C)[C@@H](C)O)C(C)C)[C@@H](C)O [compound 30] (H-KCNTATCTVQRLAHQIYQFTDKDKDNVPPTNVGSNG[Hyp]-NH2; disulfide 2-7; N-terminus assumed) | > 5000 | 0.008
CC[C@H](C)[C@H](NC(=O)[C@H](CCC(N)=O)NC(=O)[C@H](Cc1c[nH]cn1)NC(=O)[C@H](C)NC(=O)[C@H](CC(C)C)NC(=O)[C@H](CCCNC(=N)N)NC(=O)[C@H](CCC(N)=O)NC(=O)[C@@H](NC(=O)[C@@H](NC(=O)[C@@H]1CSSC[C@H](NC(=O)[C@@H](N)CCCCN)C(=O)N[C@@H](CC(N)=O)C(=O)N[C@@H]([C@@H](C)O)C(=O)N[C@@H](C)C(=O)N[C@@H]([C@@H](C)O)C(=O)N1)[C@@H](C)O)C(C)C)C(=O)N[C@@H](Cc1ccc(O)cc1)C(=O)N[C@@H](CCC(N)=O)C(=O)N[C@@H](Cc1ccccc1)C(=O)N[C@H](C(=O)N[C@@H](CC(=O)O)C(=O)N[C@@H](CCCCN)C(=O)N[C@@H](CC(=O)O)C(=O)N[C@@H](CCCCN)C(=O)N[C@@H](CC(=O)O)C(=O)N[C@@H](CC(N)=O)C(=O)N[C@H](C(=O)N[C@@H](C)C(=O)N1CCC[C@H]1C(=O)N[C@H](C(=O)N[C@@H](CC(N)=O)C(=O)N[C@H](C(=O)NCC(=O)N[C@@H](CO)C(=O)N[C@@H](CC(N)=O)C(=O)NCC(=O)N1C[C@H](O)C[C@H]1C(N)=O)C(C)C)[C@@H](C)O)C(C)C)[C@@H](C)O [compound 31] (H-KCNTATCTVQRLAHQIYQFTDKDKDNVAPTNVGSNG[Hyp]-NH2; disulfide 2-7; N-terminus assumed) | > 5000 | 0.008
CC[C@H](C)[C@H](NC(=O)[C@H](CCC(N)=O)NC(=O)[C@H](CCC(=O)O)NC(=O)[C@H](C)NC(=O)[C@H](CC(C)C)NC(=O)[C@H](CCCNC(N)=O)NC(=O)[C@H](C)NC(=O)[C@@H](NC(=O)[C@@H](NC(=O)[C@@H]1CSSC[C@H](NC(=O)[C@@H](N)CCCNC(=N)N)C(=O)N[C@@H](CCC(N)=O)C(=O)N[C@@H](C)C(=O)N[C@@H](CO)C(=O)N[C@@H]([C@@H](C)O)C(=O)N1)[C@@H](C)O)C(C)C)C(=O)N[C@@H](C)C(=O)N[C@@H](CCC(N)=O)C(=O)N[C@@H](Cc1ccc(O)cc1)C(=O)N[C@H](C(=O)N[C@@H](CC(=O)O)C(=O)N[C@@H](CCCCN)C(=O)N[C@@H](CC(=O)O)C(=O)N[C@@H](CCCCN)C(=O)N[C@@H](CC(=O)O)C(=O)N[C@@H](CCC(N)=O)C(=O)N[C@H](C(=O)N[C@@H](C)C(=O)N1CCC[C@H]1C(=O)N1CCC[C@H]1C(=O)N[C@H](C(=O)N[C@@H](CCC(=O)O)C(=O)N[C@H](C(=O)NCC(=O)N1CCC[C@H]1C(=O)N[C@@H](CC(N)=O)C(=O)N[C@@H](CO)C(=O)N1C[C@H](O)C[C@H]1C(N)=O)C(C)C)[C@@H](C)O)C(C)C)[C@@H](C)O [compound 33] (H-RCQASTCTVA[Cit]LAEQIAQYTDKDKDQVAPPTEVGPNS[Hyp]-NH2; disulfide 2-7; N-terminus assumed) | > 5000 | 0.008
CC[C@H](C)[C@H](NC(=O)[C@H](CCC(N)=O)NC(=O)[C@H](Cc1c[nH]cn1)NC(=O)[C@H](C)NC(=O)[C@H](CC(C)C)NC(=O)[C@H](CCCNC(=N)N)NC(=O)[C@H](CCC(N)=O)NC(=O)[C@@H](NC(=O)[C@@H](NC(=O)[C@@H]1CSSC[C@H](NC(=O)[C@H](CCCCN)NC(=O)CC[C@H](NC(=O)CCCCCCCCCCCCCCCCCCC(=O)O)C(=O)O)C(=O)N[C@@H](CC(N)=O)C(=O)N[C@@H]([C@@H](C)O)C(=O)N[C@@H](C)C(=O)N[C@@H]([C@@H](C)O)C(=O)N1)[C@@H](C)O)C(C)C)C(=O)N[C@@H](CCC(N)=O)C(=O)N[C@@H](CCC(N)=O)C(=O)N[C@@H](Cc1ccccc1)C(=O)N[C@H](C(=O)N[C@@H](CC(=O)O)C(=O)N[C@@H](CCCCN)C(=O)N[C@@H](CC(=O)O)C(=O)N[C@@H](CCCCN)C(=O)N[C@@H](CC(=O)O)C(=O)N[C@@H](CC(N)=O)C(=O)N[C@H](C(=O)N[C@@H](C)C(=O)N1CCC[C@H]1C(=O)N1CCC[C@H]1C(=O)N[C@H](C(=O)N[C@@H](CC(N)=O)C(=O)N[C@H](C(=O)NCC(=O)N[C@@H](CO)C(=O)N[C@@H](CC(N)=O)C(=O)NCC(=O)N1C[C@H](O)C[C@H]1C(N)=O)C(C)C)[C@@H](C)O)C(C)C)[C@@H](C)O [compound 35] ({C20 diacid-γGlu}-KCNTATCTVQRLAHQIQQFTDKDKDNVAPPTNVGSNG[Hyp]-NH2; disulfide 2-7) | > 5000 | 0.009
CC[C@H](C)[C@H](NC(=O)[C@H](CCC(N)=O)NC(=O)[C@H](Cc1c[nH]cn1)NC(=O)[C@H](C)NC(=O)[C@H](CC(C)C)NC(=O)[C@H](CCCNC(=N)N)NC(=O)[C@H](C)NC(=O)[C@@H](NC(=O)[C@@H](NC(=O)[C@@H]1CSSC[C@H](NC(=O)[C@H](CCCCN)NC(=O)CC[C@H](NC(=O)CCCCCCCCCCCCCCCCCCC(=O)O)C(=O)O)C(=O)N[C@@H](CC(N)=O)C(=O)N[C@@H]([C@@H](C)O)C(=O)N[C@@H](C)C(=O)N[C@@H]([C@@H](C)O)C(=O)N1)[C@@H](C)O)C(C)C)C(=O)N[C@@H](Cc1ccc(O)cc1)C(=O)N[C@@H](CCC(N)=O)C(=O)N[C@@H](Cc1ccccc1)C(=O)N[C@H](C(=O)N[C@@H](CC(=O)O)C(=O)N[C@@H](CCCCN)C(=O)N[C@@H](CC(=O)O)C(=O)N[C@@H](CCCCN)C(=O)N[C@@H](CC(=O)O)C(=O)N[C@@H](CC(N)=O)C(=O)N[C@H](C(=O)N[C@@H](C)C(=O)N1CCC[C@H]1C(=O)N1CCC[C@H]1C(=O)N[C@H](C(=O)N[C@@H](CC(N)=O)C(=O)N[C@H](C(=O)NCC(=O)N[C@@H](CO)C(=O)N[C@@H](CC(N)=O)C(=O)NCC(=O)N1C[C@H](O)C[C@H]1C(N)=O)C(C)C)[C@@H](C)O)C(C)C)[C@@H](C)O [compound 37] ({C20 diacid-γGlu}-KCNTATCTVARLAHQIYQFTDKDKDNVAPPTNVGSNG[Hyp]-NH2; disulfide 2-7) | > 5000 | 0.01
